Assay results reported in patent publication US9695118B2, “Benzamide derivative” (Chugai Seiyaku Kabushiki Kaisha, priority 2012, dated 2017).

Experiments:
DDR1 = DDR1 (Homo sapiens (Human), UniProt Q08345); experiment: biochemical
Description: Measurement of DDR1 Binding Activity
DDR1 binding activity was measured by the LanthaScreen (Registered trademark) Eu Kinase Binding Assay (manufactured by Life Technologies Corporation). […] After reacting at room temperature for one hour, the fluorescence resonance energy transfer was measured.

[1] = test system: human endometrial cancer cell line MFE-280; experiment: Antitumor effect in cancer-bearing mice with subcutaneously transplanted MFE-280; format: in vivo; details: Dose 200 mg/kg, orally once daily; MFE-280 in BALB/c nude mice; 11th day after start of administration
Description: 3. Measurement of Antitumor Effect
The antitumor effect was measured for representative examples of the compounds of the present invention.
The antitumor effect was measured using cancer-bearing mice in which the human endometrial cancer cell line MFE-280 (manufactured by DSMZ) was subcutaneously transplanted to the flank of BALB/c nude mice (manufactured by Charles River Laboratories Japan, Inc.).
About 1×10^7 MFE-280 cells were subcutaneously transplanted to the flank of the purchased nude mice after a one-week quarantine period. The tumor size was measured with calipers, and the tumor volume was calculated (tumor volume=length×breadth^2/2 (mm^3)). The mice were subjected to the experiment when the tumor volume was about 200 mm^3.
The test compound was suspended in the administration solution, and 0.4 mL of the suspension was orally administered once daily. The antitumor effect was calculated as inhibition of tumor growth by comparing the tumor growth between the drug-treated group and the administration solution-administered control group on the 11th day after the start of administration.
Tumor volume growth inhibition (TGI)=(1−tumor volume growth in drug-treated group/tumor volume growth in control group)×100(%)

Sequence of DDR1 (Q08345 19-913): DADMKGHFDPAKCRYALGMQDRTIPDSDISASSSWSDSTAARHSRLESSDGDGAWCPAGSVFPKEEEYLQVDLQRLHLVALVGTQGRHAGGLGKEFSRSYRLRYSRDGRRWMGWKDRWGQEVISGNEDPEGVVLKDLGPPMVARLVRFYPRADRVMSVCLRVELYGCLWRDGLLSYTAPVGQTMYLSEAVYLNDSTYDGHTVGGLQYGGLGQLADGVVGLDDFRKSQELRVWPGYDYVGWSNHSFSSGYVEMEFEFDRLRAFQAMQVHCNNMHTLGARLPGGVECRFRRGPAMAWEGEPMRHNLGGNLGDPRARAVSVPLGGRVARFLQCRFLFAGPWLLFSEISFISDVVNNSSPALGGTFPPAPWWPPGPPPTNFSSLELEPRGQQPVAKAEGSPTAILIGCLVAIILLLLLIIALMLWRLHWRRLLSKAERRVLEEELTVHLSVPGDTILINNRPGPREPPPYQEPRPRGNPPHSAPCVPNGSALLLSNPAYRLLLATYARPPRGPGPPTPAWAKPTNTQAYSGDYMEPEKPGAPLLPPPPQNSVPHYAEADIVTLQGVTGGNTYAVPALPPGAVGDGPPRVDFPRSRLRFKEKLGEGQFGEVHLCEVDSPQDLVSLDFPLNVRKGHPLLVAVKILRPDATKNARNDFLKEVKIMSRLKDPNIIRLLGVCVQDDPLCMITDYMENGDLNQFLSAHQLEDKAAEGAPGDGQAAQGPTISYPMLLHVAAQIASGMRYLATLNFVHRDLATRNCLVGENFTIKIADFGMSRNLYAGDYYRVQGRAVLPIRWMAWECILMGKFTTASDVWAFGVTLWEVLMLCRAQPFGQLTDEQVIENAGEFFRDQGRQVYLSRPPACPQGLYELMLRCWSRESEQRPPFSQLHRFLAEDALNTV

Row | IC50 (DDR1) [nM] | Compound | Antitumor effect TGI after 11 days passed (%) [1] [%]
1 | 50 | CCS(=O)(=O)c1ccc(Cl)cc1CNC(=O)c1cc(Br)cc(OC(F)(F)F)c1 [Compound A-10, 3-bromo-N-(5-chloro-2-ethanesulfonyl-benzyl)-5-trifluoromethoxy-benzamide] | 
2 |  | CCS(=O)(=O)c1ccc(Cl)cc1CNC(=O)c1ccc(CN2CCN(C)CC2)c(C(F)(F)F)c1 [Compound B-2, N-(5-Chloro-2-ethanesulfonyl-benzyl)-4-(4-methyl-piperazin-1-ylmethyl)-3-trifluoromethyl-benzamide] | 61
3 | 76 | CCS(=O)(=O)c1ccc(Cl)cc1CNC(=O)c1cc(Cl)c(CN2CCC([N+](C)(C)[O-])CC2)c(C(F)(F)F)c1 [Compound N-24] | 
4 | 800 | C#CCN(CC#C)[C@H]1CCCN(Cc2c(Cl)cc(C(=O)NCc3cc(Cl)ccc3S(=O)(=O)CC)cc2C(F)(F)F)C1 [DD-23, 4-[[(3S)-3-[Bis(prop-2-ynyl)amino]piperidin-1-yl]methyl]-3-chloro-N-[(5-chloro-2-ethylsulfonylphenyl)methyl]-5-(trifluoromethyl)benzamide] | 
